ChEMBL document CHEMBL1156784, “The permeation of amphoteric drugs through artificial membranes--an in combo absorption model based on paracellular and transmembrane permeability” (J Med Chem, 2010)

Columns and labels:
[1] = Permeability at pH 6.5 by PAMPA method
Homo sapiens = species on record: Homo sapiens; assay: Clearance in human assessed as liver blood flow; type: ADME, organism-based; conditions: in vivo
[2] = Oral bioavailability in human; conditions: in vivo
[3] = Octanol-water partition coefficient, log P of the compound

N[C@@H](Cc1ccc(N(CCCl)CCCl)cc1)C(=O)O
Papp [1]: 84 ×10⁻⁶ cm/s | LBF (Homo sapiens): 30%

Nc1nc2c(ncn2COCCO)c(=O)[nH]1 [ACYCLOVIR]
Papp [1]: 0.8 ×10⁻⁶ cm/s

CC1(C)S[C@@H]2[C@H](/N=C/N3CCCCCC3)C(=O)N2[C@H]1C(=O)O [AMDINOCILLIN]
Papp [1]: 0.9 ×10⁻⁶ cm/s | bioavailability [2]: 10%

CCOC(=O)[C@H](CCc1ccccc1)N[C@H]1CCc2ccccc2N(CC(=O)O)C1=O [BENAZEPRIL]
Papp [1]: 17 ×10⁻⁶ cm/s | bioavailability [2]: 37%

CC(C)(O/N=C(\C(=O)N[C@@H]1C(=O)N2C(C(=O)[O-])=C(C[n+]3ccccc3)CS[C@H]12)c1csc(N)n1)C(=O)O [CEFTAZIDIME]
Papp [1]: 0.2 ×10⁻⁶ cm/s | bioavailability [2]: 0%

COCc1c(C(C)C)nc(C(C)C)c(/C=C/[C@@H](O)C[C@@H](O)CC(=O)O)c1-c1ccc(F)cc1 [CERIVASTATIN]
bioavailability [2]: 60% | LBF (Homo sapiens): 10%

CN(C)[C@@H]1C(O)=C(C(N)=O)C(=O)[C@@]2(O)C(O)=C3C(=O)c4c(O)ccc(Cl)c4[C@@](C)(O)[C@H]3C[C@@H]12 [CHLORTETRACYCLINE]
Papp [1]: 3.7 ×10⁻⁶ cm/s | bioavailability [2]: 60%

COc1cccc2c1C(=O)c1c(O)c3c(c(O)c1C2=O)C[C@@](O)(C(C)=O)C[C@@H]3O[C@H]1C[C@H](N)[C@H](O)[C@H](C)O1 [DAUNORUBICIN]
Papp [1]: 0.3 ×10⁻⁶ cm/s | bioavailability [2]: 0%

CN(C)[C@@H]1C(O)=C(C(N)=O)C(=O)[C@@]2(O)C(O)=C3C(=O)c4c(O)ccc(Cl)c4[C@@H](O)[C@H]3C[C@@H]12 [DEMECLOCYCLINE]
Papp [1]: 3.8 ×10⁻⁶ cm/s | bioavailability [2]: 66%

C[C@H]1c2cccc(O)c2C(=O)C2=C(O)[C@]3(O)C(=O)C(C(N)=O)=C(O)[C@@H](N(C)C)[C@@H]3[C@@H](O)[C@@H]21.O [DOXYCYCLINE]
Papp [1]: 20 ×10⁻⁶ cm/s

CCn1cc(C(=O)O)c(=O)c2cc(F)c(N3CCNCC3)nc21 [ENOXACIN]
Papp [1]: 7.7 ×10⁻⁶ cm/s | bioavailability [2]: 89%

NC(N)=Nc1nc(CSCCC(N)=NS(N)(=O)=O)cs1 [FAMOTIDINE]
Papp [1]: 0.6 ×10⁻⁶ cm/s | bioavailability [2]: 42% | LBF (Homo sapiens): 16%

Nc1nc(O)c2ncn(COC(CO)CO)c2n1 [GANCICLOVIR]
bioavailability [2]: 7.3%

COc1c(N2CCNC(C)C2)c(F)cc2c(=O)c(C(=O)O)cn(C3CC3)c12 (stereo unspecified) [GATIFLOXACIN]
Papp [1]: 20 ×10⁻⁶ cm/s

C[N+](C)(C)C[C@H](O)CC(=O)[O-] [LEVOCARNITINE]
Papp [1]: 1.3 ×10⁻⁶ cm/s | bioavailability [2]: 10%

NCCCC[C@H](N[C@@H](CCc1ccccc1)C(=O)O)C(=O)N1CCC[C@H]1C(=O)O [LISINOPRIL ANHYDROUS]
bioavailability [2]: 25%

CCn1cc(C(=O)O)c(=O)c2cc(F)c(N3CCNC(C)C3)c(F)c21 (stereo unspecified) [LOMEFLOXACIN]
permeability [1]: 15 ×10⁻⁶ cm/s | bioavailability [2]: 97%

Cc1cnc(NC(=O)C2=C(O)c3ccccc3S(=O)(=O)N2C)s1 [MELOXICAM]
bioavailability [2]: 89%

Nc1ccc(O)c(C(=O)O)c1 [MESALAMINE]
Papp [1]: 0.9 ×10⁻⁶ cm/s | bioavailability [2]: 28%

CN(C)c1ccc(O)c2c1C[C@H]1C[C@H]3[C@H](N(C)C)C(O)=C(C(N)=O)C(=O)[C@@]3(O)C(O)=C1C2=O [MINOCYCLINE]
Papp [1]: 50 ×10⁻⁶ cm/s | bioavailability [2]: 100%

CC1COc2c(N3CCN(C)CC3)c(F)cc3c(=O)c(C(=O)O)cn1c23 (stereo unspecified) [OFLOXACIN]
bioavailability [2]: 90%

CCn1cc(C(=O)O)c(=O)c2cc(F)c(N3CCN(C)CC3)cc21 [PEFLOXACIN]
bioavailability [2]: 95%

CN1C(C(=O)Nc2ccccn2)=C(O)c2ccccc2S1(=O)=O [PIROXICAM]
Papp [1]: 20 ×10⁻⁶ cm/s

C[C@@H]1CN(c2c(F)c(N)c3c(=O)c(C(=O)O)cn(C4CC4)c3c2F)C[C@H](C)N1 [SPARFLOXACIN]
Papp [1]: 42 ×10⁻⁶ cm/s | bioavailability [2]: 92%

Nc1ccc(S(=O)(=O)Nc2ncccn2)cc1 [SULFADIAZINE]
Papp [1]: 1.2 ×10⁻⁶ cm/s | bioavailability [2]: 100% | logP [3]: -0.08

CC(C)(C)NCC(O)c1cc(O)cc(O)c1 (stereo unspecified) [TERBUTALINE]
Papp [1]: 1.4 ×10⁻⁶ cm/s | bioavailability [2]: 14%

CN(C)[C@@H]1C(O)=C(C(N)=O)C(=O)[C@@]2(O)C(O)=C3C(=O)c4c(O)cccc4[C@@](C)(O)[C@H]3C[C@@H]12 [TETRACYCLINE]
Papp [1]: 3.8 ×10⁻⁶ cm/s | bioavailability [2]: 78%

Cc1cccc(Nc2ccncc2S(=O)(=O)NC(=O)NC(C)C)c1 [TORSEMIDE]
Papp [1]: 22 ×10⁻⁶ cm/s | bioavailability [2]: 80%

N[C@@H]1[C@H]2CN(c3nc4c(cc3F)c(=O)c(C(=O)O)cn4-c3ccc(F)cc3F)C[C@@H]12 [TROVAFLOXACIN]
Papp [1]: 57 ×10⁻⁶ cm/s | bioavailability [2]: 88%
